Data on two compounds can be found in patent US8697653B2, “Microparticle formulation for pulmonary drug delivery of anti infective molecule for treatment of infectious diseases” (priority 2010, dated 2014).

A short description of series [1]: Pulmonary bioavailability, nose-only exposure lung deposition (Example 21). Format: in vivo, Guinea pigs. To be noted: 3 mg/kg. As to the method:
(§1) The assay was done as reported in The AAPS Journal, 2005, 7 (1), E20-E41.
(§2) A nose-only exposure in vivo lung deposition study was carried out as per the reference mentioned. Guinea pigs were divided in two groups. Group 1 received unformulated compound of formula I (3 mg/kg) and group 2 received formulation of Example 9 Method A (3 mg/kg). The unformulated compound of formula I and formulation of Example 9 Method A were aerosolized and the nose-only exposure was carried out using jet nebulizer wherein the nebulization period was one hour. Following aerosol administration, the animals were sacrificed at 1 hour, 2 hours, 6 hours, 12 hours and 24 hours post aerosol exposure and the lungs were collected and analyzed to quantitate the amount of compound of formula I (ng/g) deposited in the lung by LC-MS.

A short description of series [2]: Physical properties: solubility in solvents and water. Format: physicochemical. To be noted: chloroform, ethyl acetate, methanol, water. As to the method:
• Column: Eurospher RP-18, (3μ, 4.6×125 mm) • Solvent system: Gradient (0% acetonitrile to 100% in 15 minutes against water, followed by 100% acetonitrile for 5 minutes) • Flow rate: 1 mL/minute • Detection (UV): 245 nm • Retention time: compound of formula I (12 to 13 minutes) Physical & Spectral properties of the compound of formula I: • Appearance: White powder • Melting point: 240° C.

The next series deals with rat alveolar macrophages. In words: In vitro macrophage uptake assay. It counts as cell-based. As to the method:
The assay was carried out based on the reference Respiratory Research, 2009, 10, 44.
Bronchoalveolar lavage washings from the rats were taken after appropriate ethical permission. Sterile warmed saline was introduced into the lung and then removed by suction. Bronchoalveolar lavage fluid was transported on icepacks (usually 100 to 200 mL of bronchoalveolar lavage fluid per donor is desired). The fluid was subjected to centrifugation at 250 g for 10 minutes and the cells were collected. Pooled the cell pellets by resuspending the cells in a total of 10 mL of HBSS. 100 μL aliquot was removed and stained with Wright-Giemsa stain to do a differential cell count. The cell count was adjusted and plated the cells in macrophage culture medium (HAM F12 medium, Amimed, Switzerland). 0.5 mL of the cell suspension was added to each of the 6 well tissue culture plates with 0.5 mL of the macrophage culture medium. The cells were incubated for 24 hours at 37° C. and 5% CO2. Cell adherence and cell growth was evaluated and treated with the formulation of Example 9 Method A tagged with sulforhodamine dye. Post treatment the cells were evaluated for fluorescence. This fluorescence results for selective uptake of the formulation by the alveolar macrophages.

Series [3] can be described thus: Estimation of solubility in simulated lung fluid (SLF, pH 7.4) by HPLC. Format: physicochemical. To be noted: fassgf or other biorelevant, thermodynamic from solid. On the procedure: SLF was prepared by method based on Respiratory Physiology & Neurobiology, 2008, 162, 73-79. 9 g of sodium chloride, 0.220 g of calcium chloride and 6.5 g of lactose were dissolved in 1000 mL of water. The pH of the resultant solution was adjusted to 7.4. Solubility of compound of formula I in SLF was measured at two temperatures, 45° C. and 60° C. For this, 1 mg of compound of formula I was added to 3 mL of SLF (in duplicates) and after vortexing for few seconds was incubated in water bath set at the required temperatures. Solubility was measured at one hour intervals for three hours. The solution was filtered through 0.22 μm filter and the filtrate was injected on HPLC. Solubility was calculated with respect to appropriate calibration curve.

Series [4] is described as follows: Cumulative accumulation after once a day dosing for 5 days (Example 22). Details: species or system Guinea pigs. The note with it: guinea pig, in vivo; lung, 3 mg/kg, 1 hour nebulization everyday for five consecutive days, sacrificed on 6th day; read-out: Compound of formula I deposited. As to the method: Evaluation of cumulative accumulation of formulation of Example 9 Method A after once a day dosing for 5 days for nebulization exposure period of 1 hour/day The assay was done as reported in The AAPS Journal, 2005, 7 (1), E20-E41.
as §2, with “hour everyday for five consecutive days and” for “hour. Following aerosol administration,”, “on 6th day. The” for “at 1 hour, 2 hours, 6 hours, 12 hours and 24 hours post aerosol exposure and the”, “LC-MS. LC-MS conditions are as provided in Tables 15, 16 and 17 of Example 21.” for “LC-MS.”

Series [5] can be described thus: Pilot in vivo lung deposition study (Example 20). More on the design: species or system Guinea pigs. To be noted: guinea pig, lungs, 10 mg/kg aerosolized, passive breathing, read-out: compound of formula I deposited. On the procedure: as §1
A pilot in vivo lung deposition study was carried out as per the reference mentioned. Guinea pigs were divided in three groups. Group 1 received formulation of Example 9 Method A, group 2 received unformulated compound of formula I and group 3 was untreated (naïve group). 10 mg/kg of the formulation was aerosolized and the animals were allowed to breathe passively. Following administration of the formulation of Example 9 Method A the animals were sacrificed at 30 minutes time point. The lungs were collected and analyzed by HPLC.

In series [6] the test system is MRC5, L929 and A549 cell lines. Briefly: In vitro cytocompatibility assay, all cell lines evaluated. It counts as cell-based. To be noted: all the different cell lines evaluated. As to the method:
The assay was carried out based on the reference Journal of Biomedical Materials Research, 2009, […], 281-292. This assay was performed to evaluate the cytocompatibility of the formulation of Example 9 Method A with the relevant cell lines and standard cells which are specified by the regulatory agencies. Cell density: 10,000/well for MRC 5 and […], and 3000/well for A549 Time points: 24 hours and 48 hours. The toxicological evaluation was done using The CellTiter 96 Aqueous One Solution Assay by Promega (Cat. no: G3582). The assay is a standard colorimetric method for determining the number of viable cells in proliferation or cytotoxicity assays. The MTS used in the assay is bioreduced by cells into a colored formazan product that is soluble in tissue culture medium. The quantity of formazan product as measured by the amount of 490 nm absorbance is directly proportional to the number of living cells in culture. […] The ELISA 96-well plate was then subjected to absorbance recordings at 490 nm (450-540 nm) with a 96-well plate reader. The average 490 nm absorbance from the “no-cell” control was subtracted from all other absorbance values and the corrected absorbance was utilized for further calculations. (Background absorbance from “no-cell” control is typically 0.2 to 0.3 absorbance units after 4 hours of incubation).

A short description of series [7]: Dose scheduling, nose-only exposure lung deposition (Example 23). The note with it: 3 mg/kg, regimen not stated. It counts as in vivo, Guinea pigs. On the procedure:
To evaluate dose scheduling of the formulation of Example 9 Method A The assay was done as reported in The AAPS Journal, 2005, 7 (1), E20-E41.
A nose-only exposure in vivo lung deposition study was carried out as per the reference mentioned. Guinea pigs were divided in three groups. Group 1 received unformulated compound of formula I (3 mg/kg); group 2 received formulation of Example 9 Method A (3 mg/kg) once a day for one day and group 3 received formulation of Example 9 Method A (3 mg/kg) twice a day for one day. The unformulated compound of formula I and formulation of Example 9 Method A were aerosolized and the nose-only exposure was carried out using jet nebulizer. The animals were sacrificed and the lungs were collected and analyzed to quantitate the amount of compound of formula I (ng/g) deposited in the lung by LC-MS. LC-MS conditions are as provided in Tables 15, 16 and 17 of Example 21.

The conditions of series [8]: Antimicrob. Agents Chemother., 1999, 37, 281-286; cited from earlier work.

For the compound `C=C(NC(=O)C(=C)NC(=O)c1csc(C2=NC3c4csc(n4)C4NC(=O)c5csc(n5)C(C(C)(O)C(C)O)NC(=O)C5CSC(=N5)/C(=C\C)NC(=O)C(C(C)O)NC(=O)c5csc(n5)C3(CC2)NC(=O)C(C)NC(=O)C(=C)NC(=O)C(C)NC(=O)C(C(C)C)NC2C=Cc3c(C(C)O)cc(nc3C2O)C(=O)OC4C)n1)C(N)=O` (stereo not shown) [Compound of formula I], in series [1] (nose-only nebulization), the “Ability to reach the lungs on nebulization (in words)” value is reported as “unable to reach the lungs”. Moreover, in [1] (guinea pig, in vivo, lung, nose-only, 1 hour nebulization, 1 hour post exposure, read-out: Compound of formula I deposited), the concentration at 1 h is 1 ng/g. In addition, the concentration at 2 h in series [1] (guinea pig, in vivo, lung, nose-only, 1 hour nebulization, 2 hours post exposure, read-out: Compound of formula I deposited) amounted to 1 ng/g. Also, the concentration at 6 h in [1] (guinea pig, in vivo, lung, nose-only, 1 hour nebulization, 6 hours post exposure, read-out: Compound of formula I deposited) worked out at 1 ng/g. In series [1] (guinea pig, in vivo, lung, nose-only, 1 hour nebulization, 12 hours post exposure, read-out: Compound of formula I deposited), the concentration at 12 h came to 1 ng/g. In addition, the concentration at 24 h in series [1] (guinea pig, in vivo, lung, nose-only, 1 hour nebulization, 24 hours post exposure, read-out: Compound of formula I deposited) was found to be 1 ng/g. In addition, the “Solubility (in words)” value in series [2] is “Soluble in chloroform, ethyl acetate, methanol and insoluble in water”. Also, the “Uptake by alveolar macrophages (in words)” value in the series with rat alveolar macrophages is given as “does not show active uptake”. In addition, the “Compound concentration in alveolar macrophages” value came to 2010 ng/mL with rat alveolar macrophages (30 minutes), 2010 ng/mL in the series with rat alveolar macrophages (60 minutes) and 1990 ng/mL in the series with rat alveolar macrophages (120 minutes). The solubility at 1 h in series [3] (SLF pH 7.4, 45° C.) was 1.3 µg/mL; in [3] (SLF pH 7.4, 60° C.), 0.6 µg/mL. In addition, the solubility at 2 h was 0.9 µg/mL in series [3] (SLF pH 7.4, 45° C.) and 0.7 µg/mL in series [3] (SLF pH 7.4, 60° C.). Also, the solubility at 3 h was 1.2 µg/mL in [3] (SLF pH 7.4, 45° C.) and 1.3 µg/mL in series [3] (SLF pH 7.4, 60° C.). Further, in series [4], the concentration at 6 day amounted to 1 ng/g. For the same compound, the concentration at 30 min in [5] is 0 ng/g. For the same compound, the “Cytotoxicity (in words)” value in [6] was “exhibited cytotoxicity”. In addition, the “Compound of formula I deposited” value in [7] is reported as 0 ng/g.

`CN[C@H](CC(C)C)C(=O)N[C@H]1C(=O)N[C@@H](CC(N)=O)C(=O)N[C@H]2C(=O)N[C@H]3C(=O)N[C@H](C(=O)N[C@H](C(=O)O)c4cc(O)cc(O)c4-c4cc3ccc4O)[C@H](O)c3ccc(c(Cl)c3)Oc3cc2cc(c3O[C@@H]2O[C@H](CO)[C@@H](O)[C@H](O)[C@H]2O[C@H]2C[C@](C)(N)[C@H](O)[C@H](C)O2)Oc2ccc(cc2Cl)[C@H]1O` [Vancomycin]: the “Lung concentrations as % of the plasma concentrations” value in series [8] is listed as 20%.

In general, solubility refers to how much of the substance goes into solution per volume.
